Columns and labels:
[1] = biological target: T1, CDC25B (Homo sapiens, UniProt P30305); test: CDC25B enzyme assay; assay type: biochemical; settings: catalytic domain of CDC25B (aa 378-566) GST fusion, 20 μm FDP, 1 hour at room temperature, fluorescence
T1 construct: Catalytic domain of CDC25B (aa 378-566) was expressed and produced in E. coli into a GST fusion protein; GST; made in house; host or cells: E. coli
T1 sequence (P30305 378-566 isoform P30305-2): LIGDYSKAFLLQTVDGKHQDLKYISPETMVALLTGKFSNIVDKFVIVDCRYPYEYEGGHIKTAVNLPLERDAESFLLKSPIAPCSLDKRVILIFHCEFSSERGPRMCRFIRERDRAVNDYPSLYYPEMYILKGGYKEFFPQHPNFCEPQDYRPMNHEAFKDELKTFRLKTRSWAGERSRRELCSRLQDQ
Description: Catalytic domain of CDC25B (aa 378-566) was expressed and produced in E. coli into a GST fusion protein, which was used as zymogen. Enzyme assay was carried out on a 96-well plate, with the final reaction volume per well adjusted to 200 μL. 170 μL of a buffer solution (30 mM Tris buffer, pH 8.5, 75 mM NaCl, 0.67 mM EDTA, 1 mM DTT), 20 μL (0.2 μg) of CDC25B enzyme and 10 μL of the test compound dissolved in DMSO were added, so that the final concentration became 1 μg/mL CDC25B and 20 μm FDP. Measurement was made after culturing at room temperature for 1 hour. FDP and DTT were added to the buffer solution just before assay, so that a fresh status could be maintained. After 1 hour of culturing, fluorescence resultant from the enzymatic reaction was measured at 485 nm (excitation) and 538 nm (emission).
The screened compound was treated to a final concentration of 1, 2, 5 and 10 μm to obtain the % inhibition value. If the inhibitory effect was low (less than 50% at […]), the concentration of the compound was increased to 20 μm and the % inhibition value and the IC50 value were obtained.

[2] = system: HT29; test: Cell cytotoxicity assay (SRB), HT29; assay type: cell-based; settings: Homo sapiens, HT-29, HT29, 10 μM, 48 hours, read-out: % of inhibition of growth of cancer cells
Description: (§1) A549, HT29 and MCF-7 were used to measure anticancer activity. The cancer cells were those distributed from the National Cancer Institute (NCI) of the U.S. and cultured by the Korea Research Institute of Chemical Technology (KRICT), which had been derived from human tumor cell lines. The cells were cultured in a 5% CO2 incubator at 37° C. with constant temperature and humidity using RPMI 1640 culture medium fortified with 5% fetal bovine serum. Subculturing was carried out once in 3-4 days. A PBS (phosphate buffered saline) solution in which 0.25% trypsin and […] trans-1,2-diaminocyclohexane-N,N,N,N-tetraacetic acid (CDTA) were dissolved was used to separate the cells.
(§2) The SRB (sulforhodamine B) assay method, which was developed in 1989 to measure in vitro anticancer activity of drugs by the NCI, was used. The cells were separated using a trypsin-CDTA solution and were plated on a 96-well microplate (Falcon), about 2×10^3 cells per each well. The cells were cultured in a CO2 incubator for 24 hours and were attached to the bottom of the plate. After removing the culture medium using an aspirator, each of Compound No. 78, Compound No. 79 and Doxorubicin, a control drug, diluted in a culture medium was added to the wells containing the cells, with a log dose of 6 equivalents, 3 times, […] at one time. The cells were cultured for 48 more hours. If required, dimethylsulfoxide (DMSO) was used to dissolve the compounds. The diluted compound solutions were filtered through a […] filter before being added to the cells. […] Then, absorbance was measured at 520 nm using a microplate reader. In order to quantify the anticancer effect of the compounds, number of cells was counted for the cases where the drug was added (Tz), the cells were cultured for 48 hours with a culture medium containing no drug (C) and the cells were cultured for 48 hours with a culture medium containing the drug (T). Anticancer activity was calculated by the following equations 1 and 2. […]

[3] = system: MCF-7; test: Cell cytotoxicity assay (SRB), MCF-7; assay type: cell-based; settings: Homo sapiens, MCF7, MCF-7, 10 μM, 48 hours, read-out: % of inhibition of growth of cancer cells
Description: as §1, §2

[4] = system: C33A human uterine cancer cell line; settings: for negative responses (reduced motion, lack of appetite): mouse, in vivo
Description: In order to verify the in vivo anticancer effect of the compounds of the present invention, C33A human uterine cancer cell line was subcutaneously injected at the abdominal walls of 6- to 8-week-old male nude mice. […] For a positive control, cisplatin (4 mg/kg), which is widely used as an anticancer agent in clinical tests, was used. The dosage given was 0.25 mL per each administration once a day for a period of 7 consecutive days. The volume of the tumor was calculated by the following equation 3, by measuring the long and short axes with a caliper. Tumor volume=(Short axis,mm)^2×(Long axis,mm)×0.523 Equation 3

[5] = system: A549; test: Cell cytotoxicity assay (SRB), A549; assay type: cell-based; settings: Homo sapiens, A549, 10 μM, 48 hours, read-out: % of inhibition of growth of cancer cells
Description: as §1, §2

SMILES	IC50 [1]	other results
O=C1NC(=O)/C(=C/c2cn(-c3ccccc3)nc2-c2cccc(C(F)(F)F)c2)S1 [Compound 16, 5-[3-(3-trifluoromethyl)-1-phenyl-1H-pyrazol-4-ylmethylene]-thiazolidine-2,4-dione]	230 nM	–
COc1ccc(-c2nn(-c3ccccc3)cc2/C=C2\SC(=O)NC2=O)cc1I [Compound 111]	3250 nM	–
CCCOc1ccc(-c2nn(-c3ccccc3)cc2/C=C2\SC(=O)N(CCC)C2=O)cc1Br [Compound 85]	2020 nM	–
CCCN1C(=O)S/C(=C\c2cn(-c3ccccc3)nc2-c2ccc(OCC)c(I)c2)C1=O [Compound 118]	9250 nM	–
CCOc1ccc(-c2nn(-c3ccccc3)cc2C=C2SC(=O)N(C)C2=O)cc1Br [Compound 78, 5-[3-(3-bromo-4-ethoxy-phenyl)-1-phenyl-1H-pyrazol-4-ylmethylene]-3-methyl-thiazolidine-2,4-dione]	2260 nM	inhibition at 10 µM [2]: 59.7%; inhibition at 10 µM [3]: 67.3%; anticancer activity (tumor volume) ([4]; C33A tumor in male nude mice, into the abdominal cavity once a day for 7 days, FIG. 1, cisplatin 4 mg/kg positive control): comparable to that of cisplatin; negative responses (reduced motion, lack of appetite) [4]: did not shows any negative responses; inhibition at 10 µM [5]: 67.5%
CCCOc1c(Cl)cccc1-c1nn(-c2ccccc2)cc1/C=C1\SC(=O)NC1=O [Compound 70]	4050 nM	–
O=C1NC(=O)/C(=C/c2cn(-c3ccccc3)nc2-c2cc(OCC3CC3)cc(OCC3CC3)c2)S1 [Compound 35]	1520 nM	–
O=C1NC(=O)/C(=C/c2cn(-c3ccccc3)nc2-c2cc(OCc3ccccc3)cc(OCc3ccccc3)c2)S1 [Compound 62]	230 nM	–
C#CCN1C(=O)S/C(=C\c2cn(-c3ccccc3)nc2-c2ccc(OCC=C)c(I)c2)C1=O [Compound 133]	4990 nM	–
COc1ccc(-c2nn(-c3ccccc3)cc2/C=C2\SC(=O)NC2=O)cc1C(C)C [Compound 136]	2060 nM	–
COc1cccc2c1C(=O)c1c(O)c3c(c(O)c1C2=O)C[C@@](O)(C(=O)CO)C[C@@H]3O[C@H]1C[C@H](N)[C@H](O)[C@H](C)O1 [Doxorubicin, reference compound]	–	inhibition at 10 µM [2]: 51.1%; inhibition at 10 µM [3]: 63.2%; inhibition at 10 µM [5]: 39%
CCOc1c(Br)cc(-c2nn(-c3ccccc3)cc2/C=C2\SC(=O)NC2=O)cc1Br [Compound 151]	1400 nM	–
N.N.[Cl][Pt][Cl] [cisplatin, reference compound]	–	negative responses (reduced motion, lack of appetite) [4]: reduced motion or lack of appetite
O=C1NC(=O)/C(=C/c2cn(-c3ccccc3)nc2-c2ccc(OCC3CC3)c(Br)c2)S1 [Compound 94]	1630 nM	–
COc1c(C(C)C)cc(-c2nn(-c3ccccc3)cc2/C=C2\SC(=O)NC2=O)cc1C(C)C [Compound 184]	3660 nM	–
C#CCOc1ccc(-c2nn(-c3ccccc3)cc2/C=C2\SC(=O)NC2=O)cc1Br [Compound 100]	2980 nM	–
C#CCN1C(=O)S/C(=C\c2cn(-c3ccccc3)nc2-c2cc(Br)c(OCC=C)c(Br)c2)C1=O [Compound 169]	7140 nM	–
O=C1NC(=O)/C(=C/c2cn(-c3ccc([N+](=O)[O-])cc3)nc2-c2cc(OCc3ccccc3)cc(OCc3ccccc3)c2)S1 [Compound 65]	210 nM	–
CCCOc1ccc(-c2nn(-c3ccccc3)cc2/C=C2\SC(=O)NC2=O)cc1C(C)C [Compound 141]	2240 nM	–
CCOc1ccc(-c2nn(-c3ccccc3)cc2C=C2SC(=O)N(CC)C2=O)cc1Br [Compound 79, 5-[3-(3-bromo-4-ethoxy-phenyl)-1-phenyl-1H-pyrazol-4-ylmethylene]-3-ethyl-thiazolidine-2,4-dione]	1410 nM	inhibition at 10 µM [2]: 82.4%; inhibition at 10 µM [3]: 31.1%; inhibition at 10 µM [5]: 39.1%
CN1C(=O)S/C(=C\c2cn(-c3ccccc3)nc2-c2cccc([N+](=O)[O-])c2)C1=O [Compound 15, 5-[3-(3-nitro)-1-phenyl-1H-pyrazol-4-ylmethylene]-3-methyl-thiazolidine-2,4-dione]	8280 nM	–
